Measured values taken from patent US20030198617A1, “Pharmaceutical tryptophan containing dipeptide compositions and methods of use thereof” (priority 1993, published 2003).
Where two headings read alike, the source gives them in different places.

How the values were obtained:
Format in all cases: in vivo, human
AIDS = AIDS infected and immunosuppressed individuals
Acne vulgaris patients = assay: Acne vulgaris patients
Description: A number of patients within the group patients afflicted with furunculitis, pyoderma, cellulitis, and folliculitis are afflicted with acne vulgaris and acne. […] The clinical outcome correlates with the correction of immunological indices, and relapses are controlled.
A number of patients within the group of 159 patients afflicted with furunculitis, pyoderma, cellulitis, and folliculitis were afflicted with acne vulgaris and acne. […] The clinical outcome correlated with the correction of immunological indices, and relapses were controlled.

Psoriasis patients = settings: 10 days
Experimental: Patients with psoriasis are treated with Ile-Trp and some patients are used as controls.
All patients had at a least 5 year history of […] treatment.

[1] = Female patients with pelvic inflammatory diseases, cervicitis, vaginitis, abscesses
Experimental: Female patients with the various disorders (pelvic inflammatory diseases, cervicitis, vaginitis and various tubo-ovarian and adnexal abscesses) are treated and some patients are used as controls. Ile-Trp is applied IM, intranasally at 100 μg 5 consecutive days or 50 μg intralymphatically for 5 consecutive days in conjunction with conventional therapy. […] The normalization of immune status correlates with clinical improvements.
The normalization of immune status correlated with clinical improvements.

herpetic lesions = assay: Recurrent herpetic lesions; settings: for recurrence of herpetic lesions: IM or intranasally
[2] = Gingival disease patients
Experimental: Patients are treated for gingival disease by subcutaneous administration of Ile-Trp in the area of the gingiva. […] Administration of 100 μg IM, subcutaneously, or by electrophoresis (whereby a small voltage charge to the gums results in a rapid transfer of medication through the gum epithelium) results in the arresting of bleeding, more rapid restoration of inflammatory processes, and the decrease of purulent discharge. The treatment results in fewer recurrences and prolongation of normal gums.

[3] = Toothpaste containing the dipeptide: dental caries, gingival disease
[4] = Sinus disease patients (Examples 14, 63); settings: 3-10 days
Description: The decrease of treatment duration up to 1.7 times compared to controls.

[5] = Chronic and acute ear infections
[6] = Eye problems, with conventional treatment
Experimental: Patients with various eye problems are treated by conventional methods, with one group receiving Ile-Trp in addition to the conventional treatment.

[7] = Bone-marrow compromise (transplant or radiation exposure)
[8] = Antibiotic-treated patients with unfavorable allergological history
Experimental: Ile-Trp is applied in patients treated with antibiotics for various indications who have unfavorable allergological history. Ile-Trp is administered IM or intranasally single daily at 100 μg for 5-10 days.
Control group comprised 43 patients.

Bone fractures = assay: Bone fractures
Experimental: Ile-Trp is applied to patients with bone fractures of various origin, type and localization. Ile-Trp is administered intramuscularly or intranasally single daily at […] for 10 days.
The control group comprised 28 patients.

Cutaneous burns = assay: Cutaneous burns
Experimental: Patients with cutaneous burns are treated with Ile-Trp either IM or intranasally.

[9] = Frostbite to the extremities
Experimental: Patients with frostbite to the extremities are treated with Ile-Trp either IM or intranasally.

[10] = Chemotherapy complications and side effects
Toxemia of pregnancy = assay: Toxemia of pregnancy
Experimental: Ile-Trp is applied in pregnant women with Toxemia of first and second half of pregnancy. Ile-Trp is administered IM and intranasally at 100 μg daily for 5-10 days. It is observed that the BP normalized, and peripheral edema is reduced with normalization of the blood chemistry profile, and the restoration of initially altered immunologic indices.
The control group comprised 54 patients.

[11] = Pregnant women (Examples 34, 87)
Experimental: Ile-Trp is administered to pregnant women. The route of administration is IM or intranasally 100 μg daily for 5-10 days.
The route of administration is IM or intranasally 100 μg daily for 5-10 days. […] It was also noted that there was a decrease in fetal hypoxia.

leprosy = assay: Leprosy (Hansen's disease)
tropical malaria = assay: Relapsing tropical malaria
Experimental: Patients are studied who have relapsing forms of tropical malaria, moderate to severe, and severe cases with 21 patients in the control group. Ile-Trp is administered at 100 μg single daily doses Im or intranasally for 5-10 days.
A total of 33 patients were studied with patients who had relapsing forms of tropical malaria, moderate to severe, and severe cases with 21 patients in the control group.

hemorrhagic Dengue Fever = assay: Hemorrhagic Dengue Fever (Examples 38, 94)
Description: Ile-Trp is applied in patients with hemorrhagic Dengue Fever. […]
It was also noted that the muscular and bone pain experienced typically was reduced, and the immunological indices were normalized.

TB bacilli = settings: 5 doses
[12] = IM862 100 μg IM or intranasally

With Glu-Trp [IM862] the immunological indices (AIDS; IM862, immunosuppressed individuals with radiation injuries) was “excellent restoration of immunological indices”, the “comparison with TPI as cell mediator” value (AIDS; IM862 vs TPI) was “far more effective cell mediator” and the immunological indices (Acne vulgaris patients; IM862 group) was “corrected and normalized rapidly”. The “significant improvement, share of patients” value (Psoriasis patients; [12]) was 60%, the “total recovery, share of patients” value (Psoriasis patients; [12]) was 33% and the “improvement, share of patients” value (Psoriasis patients; IM862 100 μg IM or intranasally, 30 patients) was 7%. For the same substance, the clinical effect ([1]; IM862 with conventional therapy, 46 patients) was “arresting of pain syndrome”, the “outbreaks per year after treatment” value (herpetic lesions; IM862 in combination with interferon, 7-10 outbreaks per year before) was “less than one outbreak per year” and the “recurrence of herpetic lesions” value (herpetic lesions; IM862 topically) was “marked reduction of recurrence of herpetic lesions”. The clinical effect ([2]; IM862, subcutaneous in the gingiva) was “arresting of gingival disease”, the clinical effect ([3]; toothpaste containing IM862) was “reduction of gingival disease and reduction in dental caries” and the “decrease of treatment duration compared to controls” value ([4]; IM862 1 μg/kg) was “up to 1.7 times”. The clinical effect ([4]; IM862 1 μg/kg, 51 patients) was “normalization of nasal breathing”, the clinical effect ([5]; IM862 with antibiotics) was “accelerated healing of chronic and acute ear infections” and the clinical effect ([6]; IM862 intra ocularly 18 μg 5 days or drops, 41 patients) was “more rapid arresting of the inflammatory process”. The clinical effect ([7]; IM862 IM or intranasally) was “improved immune parameters”, the “allergic reactions to antibiotics” value ([8]; IM862 100 μg 5-10 days, 76 patients, majority of cases) was “prevented the arising of allergic reactions” and the consolidation of fractures (Bone fractures; IM862, 10 days, 44 patients) was “accelerated essentially”. The clinical effect (Cutaneous burns; IM862 IM or intranasally, 23 patients) was “Accelerated wound healing, diminished frequency of infections, and less eschar”, the clinical effect ([9]; IM862 IM or intranasally, 17 patients) was “rapid healing and restoration of tissue integrity” and the clinical effect ([10]; IM862 during chemotherapy) was “fewer complications and side effects related to chemotherapy”. For the same substance, the clinical effect (Toxemia of pregnancy; IM862 100 μg daily 5-10 days, 97 women) was “BP normalized”, the clinical effect ([11]; IM862 100 μg daily 5-10 days, 34 women) was “resolution of weakness, dizziness, and increased appetite” and the clinical effect (leprosy; IM862 100 μg 5 days with conventional therapy, 45 patients) was “resolution of the lesions”. The clinical effect (tropical malaria; IM862 100 μg 5-10 days, 33 patients) was “reduction of hepatolineal syndrome”, the clinical effect (hemorrhagic Dengue Fever; IM862 IM 100 μg 3 days with conventional therapy, 21 patients) was “reduction in fever” and the clinical effect (TB bacilli; IM862 50 to 100 μg every other day, 2 months after the course, 37 patients) was “disappearance of toxic symptoms”.
With Ile-Trp the “immunologic indices, T-cell functional activity, T4/T8 ratios” value (AIDS; Ile-Trp, AIDS infected individuals) was “restoring normal immunologic indices”, the immunological indices (AIDS; Ile-Trp, immunosuppressed individuals with radiation injuries) was “excellent restoration of immunological indices” and the immunological indices (Acne vulgaris patients; Ile-Trp group) was “corrected and normalized rapidly”. The clinical effect (Psoriasis patients; Ile-Trp 100 μg IM or intranasally) was “improvement in most of the patients, and total recovery in some of the patients”, the clinical effect ([1]; Ile-Trp with conventional therapy) was “arresting of pain syndrome” and the “recurrence of herpetic lesions” value (herpetic lesions; Ile-Trp topically) was “marked reduction of recurrence of herpetic lesions”. The clinical effect ([2]; Ile-Trp, subcutaneous in the gingiva) was “arresting of gingival disease”, the clinical effect ([3]; toothpaste containing Ile-Trp) was “reduction of gingival disease and reduction in dental caries” and the clinical effect ([4]; Ile-Trp 1 μg/kg) was “normalization of nasal breathing”. For the same substance, the clinical effect ([5]; Ile-Trp with antibiotics) was “accelerated healing of chronic and acute ear infections”, the clinical effect ([6]; Ile-Trp intra ocularly 18 μg 5 days or drops) was “more rapid arresting of the inflammatory process” and the clinical effect ([7]; Ile-Trp IM or intranasally) was “improved immune parameters”. The “allergic reactions to antibiotics” value ([8]; Ile-Trp 100 μg 5-10 days) was “prevents the arising of allergic reactions”, the consolidation of fractures (Bone fractures; Ile-Trp, 10 days) was “accelerates essentially” and the clinical effect (Cutaneous burns; Ile-Trp IM or intranasally) was “Accelerated wound healing, diminished frequency of infections, and less eschar”. The clinical effect ([9]; Ile-Trp IM or intranasally) was “Rapid healing and restoration of tissue integrity”, the clinical effect ([10]; Ile-Trp during chemotherapy) was “fewer complications and side effects related to chemotherapy” and the clinical effect (Toxemia of pregnancy; Ile-Trp 100 μg daily 5-10 days) was “BP normalized”. For the same substance, the clinical effect ([11]; Ile-Trp 100 μg daily 5-10 days) was “resolution of weakness, dizziness, and increased appetite”, the clinical effect (leprosy; Ile-Trp 100 μg 5 days with conventional therapy) was “resolution of the lesions” and the clinical effect (tropical malaria; Ile-Trp 100 μg 5-10 days) was “reduction of hepatolineal syndrome”. For the same substance, the clinical effect (hemorrhagic Dengue Fever; Ile-Trp IM 100 μg 5 days with conventional therapy) was “reduction in fever” and the clinical effect (TB bacilli; Ile-Trp 50 to 100 μg every other day, with conventional therapy) was “disappearance of toxic symptoms”.
